Source: ChEMBL document CHEMBL5137021, “Organotropic dendrons with high potency as HIV-1, HIV-2 and EV-A71 cell entry inhibitors” (Eur J Med Chem, 2022)
Values belong to the molecule of their own block, whether it stands above or below them.

Columns and labels:
[1] = Cytotoxicity against human MT4 cells assessed as cell viability measured after 5 days by MTS assay; type: toxicity, cell-based; settings: time 5 day
[2] = tested on: Human immunodeficiency virus 1; test: Antiviral activity against HIV1 NL4-3 infected in human MT4 cells assessed as protection against virus induced cytopatheic effect measured after 5 days by MTS assay; type: functional, organism-based; settings: Human immunodeficiency virus 1, NL4-3, MT4, 120 h
[3] = tested on: Human immunodeficiency virus 2; test: Antiviral activity against HIV2 ROD infected in human MT4 cells assessed as protection against virus induced cytopatheic effect measured after 5 days by MTS assay; type: functional, organism-based; settings: Human immunodeficiency virus 2, ROD, MT4, 120 h
[4] = Cytotoxicity against human RD cells assessed as cell viability measured after 5 days by MTS assay; type: toxicity, cell-based; settings: time 5 day
Enterovirus A71 [5] = test: Antiviral activity against EV-A71 infected in RD cells assessed as protection against virus induced cytopatheic effect measured after 5 days by MTS assay; type: functional, organism-based; settings: Enterovirus A, 120 h
[6] = Selectivity index, ratio of CC50 for human MT4 cells to EC50 for antiviral activity against HIV-1 NL4.3; type: toxicity; settings: read-out: Ratio CC50/EC50
[7] = Selectivity index, ratio of CC50 for human RD cells to EC50 for antiviral activity against EV-A71; type: toxicity; settings: read-out: Ratio CC50/EC50
Enterovirus A71 [8] = test: Antiviral activity against Enterovirus A71 BrCr infected in RD cells assessed as protection against virus induced cytopatheic effect measured after 5 days by MTS assay; type: functional, organism-based; settings: Enterovirus A, 120 h
Coxsackievirus B3 = test: Antiviral activity against Coxsackievirus B3 Nancy strain infected in Vero cells assessed as protection against virus induced cytopatheic effect measured after 5 days by MTS assay; type: functional, organism-based; settings: Enterovirus B, 120 h
enterovirus D68 = test: Antiviral activity against Enterovirus D68 CU70 infected in HeLa cells assessed as protection against virus induced cytopatheic effect measured after 5 days by MTS assay; type: functional, organism-based; settings: Enterovirus D, 120 h
rhinovirus A2 = test: Antiviral activity against Rhinovirus 2 infected in HeLa cells assessed as protection against virus induced cytopatheic effect measured after 5 days by MTS assay; type: functional, organism-based, Enterovirus; settings: Rhinovirus A, 2, HeLa, 120 h
rhinovirus B14 = test: Antiviral activity against Rhinovirus 14 infected in HeLa cells assessed as protection against virus induced cytopatheic effect measured after 5 days by MTS assay; type: functional, organism-based, Enterovirus; settings: Rhinovirus B, 14, HeLa, 120 h
Enterovirus A71 [9] = test: Antiviral activity against EV-A71 genotype C4 TW/1956/05 infected in RD cells assessed as protection against virus induced cytopatheic effect measured after 5 days by MTS assay; type: functional, organism-based; settings: Enterovirus A, genotype C4 TW/1956/05, RD, 120 h
Enterovirus A71 [10] = test: Antiviral activity against EV-A71 genotype A BrCr infected in RD cells assessed as protection against virus induced cytopatheic effect measured after 5 days by MTS assay; type: functional, organism-based; settings: 120 h
Enterovirus A71 [11] = test: Antiviral activity against EV-A71 genotype B2 11316 infected in RD cells assessed as protection against virus induced cytopatheic effect measured after 5 days by MTS assay; type: functional, organism-based; settings: Enterovirus A, genotype B2 11316, RD, 120 h
Enterovirus A71 [12] = test: Antiviral activity against EV-A71 genotype B5 TW/70902/08 infected in RD cells assessed as protection against virus induced cytopatheic effect measured after 5 days by MTS assay; type: functional, organism-based; settings: Enterovirus A, genotype B5 TW/70902/08, RD, 120 h
Enterovirus A71 [13] = test: Antiviral activity against EV-A71 genotype C2 H08300 461#812 infected in RD cells assessed as protection against virus induced cytopatheic effect measured after 5 days by MTS assay; type: functional, organism-based; settings: Enterovirus A, genotype C2 H08300 461#812, RD, 120 h
Enterovirus A71 [14] = test: Antiviral activity against Enterovirus A71 BrCr harboring VP1_S184T mutant infected in RD cells assessed as protection against virus induced cytopatheic effect measured after 5 days by MTS assay; type: functional, organism-based
Enterovirus A71 [15] = test: Antiviral activity against Enterovirus A71 BrCr harboring VP1_P246S mutant infected in RD cells assessed as protection against virus induced cytopatheic effect measured after 5 days by MTS assay; type: functional, organism-based
Enterovirus A71 [16] = test: Antiviral activity against Enterovirus A71 BrCr harboring VP1_S184T_P246S mutant infected in RD cells assessed as protection against virus induced cytopatheic effect measured after 5 days by MTS assay; type: functional, organism-based
[17] = Ex vivo biodistribution in ip dosed C57BL/6 mouse intestine measured after 2 hrs by fluorescence analysis; type: ADME, organism-based
[18] = Ex vivo biodistribution in iv dosed C57BL/6 mouse intestine measured after 2 hrs by fluorescence analysis; type: ADME, organism-based
[19] = Ex vivo biodistribution in ip dosed C57BL/6 mouse lung measured after 24 hrs by fluorescence analysis; type: ADME, organism-based
[20] = Ex vivo biodistribution in ip dosed C57BL/6 mouse lung measured after 72 hrs by fluorescence analysis; type: ADME, organism-based
[21] = Ex vivo biodistribution in ip dosed C57BL/6 mouse intestine measured after 24 hrs by fluorescence analysis; type: ADME, organism-based
[22] = Ex vivo biodistribution in ip dosed C57BL/6 mouse intestine measured after 72 hrs by fluorescence analysis; type: ADME, organism-based

SMILES: O=C(CCC(CCC(=O)NC(Cc1c(-c2cc(C(=O)O)cc(C(=O)O)c2)[nH]c2ccccc12)C(=O)O)(CCC(=O)NC(Cc1c(-c2cc(C(=O)O)cc(C(=O)O)c2)[nH]c2ccccc12)C(=O)O)NC(=O)CCCCCCNC(=O)Nc1cc(C(=O)O)cc(C(=O)O)c1)NC(Cc1c(-c2cc(C(=O)O)cc(C(=O)O)c2)[nH]c2ccccc12)C(=O)O (stereo unspecified)
CC50 at 120 h [1]: > 100000 nM
EC50 [2]: 1090 nM
EC50 [3]: 50 nM
CC50 at 120 h [4]: > 100000 nM
EC50 (Enterovirus A71 [5]): 50 nM
selectivity ratio [6]: > 92
selectivity ratio [7]: > 2000
EC50 (Enterovirus A71 [8]): 40 nM
EC50 (Coxsackievirus B3): > 50000 nM
EC50 (enterovirus D68): > 50000 nM
EC50 (rhinovirus A2): > 50000 nM
EC50 (rhinovirus B14): > 50000 nM
EC50 (Enterovirus A71 [9]): 6 nM
EC50 (Enterovirus A71 [10]): 42 nM
EC50 (Enterovirus A71 [11]): 75 nM
EC50 (Enterovirus A71 [12]): 2 nM
EC50 (Enterovirus A71 [13]): 91 nM
EC50 (Enterovirus A71 [14]): 300 nM
EC50 (Enterovirus A71 [15]): 60 nM
EC50 (Enterovirus A71 [16]): 300 nM

Drug uptake [17]: Active
Drug uptake [18]: Active
Drug uptake [19]: Active
Drug uptake [20]: Active
Drug uptake [21]: Active
Drug uptake [22]: Active
SMILES: CC1(CCCCCCC(=O)NC(CCC(=O)NC(Cc2c(-c3cc(C(=O)O)cc(C(=O)O)c3)[nH]c3ccccc23)C(=O)O)(CCC(=O)NC(Cc2c(-c3cc(C(=O)O)cc(C(=O)O)c3)[nH]c3ccccc23)C(=O)O)CCC(=O)NC(Cc2c(-c3cc(C(=O)O)cc(C(=O)O)c3)[nH]c3ccccc23)C(=O)O)C(/C=C/C=C/C=C2/N(CCCS(=O)(=O)O)c3ccc(S(=O)(=O)O)cc3C2(C)C)=[N+](CCCS(=O)(=O)O)c2ccc(S(=O)(=O)O)cc21.[Na+].[Na+].[Na+].[Na+].[Na+].[Na+].[Na+].[Na+].[Na+].[Na+].[Na+].[Na+] (stereo unspecified)
